Earlier results in patent publication US12419869B2, “Methods of treating multiple sclerosis” (Vanda Pharmaceuticals Inc., priority 2021, dated 2025).

Test system: adult subjects with relapsing MS
Conditions: comparison values; cited from earlier work

SMILES	ECG HR effect: time of nadir post-dose (other S1P modulators) [h]
CCc1cc(/C(C)=N/OCc2ccc(C3CCCCC3)c(C(F)(F)F)c2)ccc1CN1CC(C(=O)O)C1 [Siponimod]	3 to 4
CCCCCCCCc1ccc(CCC(N)(CO)CO)cc1 [Fingolimod]	~6
